Measured values reported in ChEMBL document CHEMBL1121918, “Synthesis and pharmacological evaluation of poly(oxyethylene) derivatives of 4-isobutylphenyl-2-propionic acid (ibuprofen)” (J Med Chem, 1981).

Assay: Lethal dose in mice when administered orally
Type: toxicity, organism-based
Conditions: mouse, in vivo, po

Row | SMILES | LD50
1 | CC(C)Cc1ccc(C(C)C(=O)OCCOCCOCCOCCOCCOCCOCCOCCOCCOCCOCCOCCOCCOCCOCCOCCOCCOCCOCCOCCOC(=O)C(C)c2ccc(CC(C)C)cc2)cc1 (stereo not drawn) | > 2000 mg/kg
2 | CC(C)Cc1ccc(C(C)C(=O)OCCOCCOCCOCCO)cc1 (stereo not drawn) | > 2000 mg/kg
3 | CC(C)Cc1ccc(C(C)C(=O)OCCOCCOCCOCCOCCOCCOCCOCCOCCOCCOCCOCCOCCOCCOCCOCCOCCOCCOCCOCCOCCOCCOCCOCCOCCOCCOCCOCCOCCOCCOCCOCCOCCOCCOCCOCCOCCOCCOCCOCCOCCOCCOCCOCCOCCOC(=O)C(C)c2ccc(CC(C)C)cc2)cc1 (stereo not drawn) | > 2000 mg/kg
